Measurements from patent EP0761679A1, “N-Butylsulfonate esters of estrogens” (ELI LILLY AND COMPANY, priority 1995, dated 1997).

These compounds were tested on ovariectomized rat (assay: ovariectomized (ovex) rat model, uterine wet weight after four days of oral treatment). Conditions: 96 h, 0.1 mg/kg P.O. (gavage in 0.5 mL of 1% carboxymethylcellulose suspension), ovariectomized female rats, read-out: Uterine weight as percent control @ 0.1 mg/kg P.O.
Type: in vivo, Sprague Dawley rats
Procedure: Seventy-five day old female Sprague Dawley rats (weight range of 225-275 g) were obtained from Charles River Laboratories (Portage, MI). The animals were either bilaterally ovariectomized or exposed to a sham surgical procedure at Charles River Laboratories, and then shipped after one week. They were housed in groups of three and had ad libitum access to food and water. Room temperature was maintained at 22.2° C with 40% relative humidity. The photo-period was 12 hours of light and 12 hours of darkness. One week after arrival (thus, 14 days post-ovariectomy), the rats were treated with vehicle, 17-α-ethinyl estradiol, parent hydroxy estrogens, or a compound of formula I was initiated. After four days of treatment, blood was collected by cardiac puncture, the animals were sacrificed by carbon dioxide asphyxiation and the uteri were removed and wet weight determined. […] All compounds were given by oral dosage (gavage in 0.5 mL of 1% carboxymethylcellulose suspension). For comparison purposes, the data represented are for 0.1 mg/kg for all compounds. The positive control was 0.1 mg/kg of 17-α-ethinyl estradiol, a known, orally available estrogen.

Structure (SMILES) | response vs control in vivo at 0.1 mg/kg
C[C@]12CC[C@@H]3c4ccc(OS(=O)(=O)c5ccccc5)cc4CC[C@H]3[C@@H]1CCC2=O [3-phenylsulfonoyl estrone] | 10%
CCCCS(=O)(=O)Oc1ccc2c(c1)CC[C@@H]1[C@@H]2CC[C@]2(C)C(=O)CC[C@@H]12 [3-n-butylsulfonyl estrone, 3-n-butylsulfonoyl estrone] | 67%
C[C@]12CC[C@@H]3c4ccc(OS(=O)(=O)c5ccccc5)cc4CC[C@H]3[C@@H]1CC[C@@H]2O [3-phenylsulfonoyl-17-β-estradiol] | 0%
C[C@]12CC[C@@H]3c4ccc(O)cc4CC[C@H]3[C@@H]1CC[C@@H]2O [17-β-estradiol] | 43%
C[C@]12CC[C@H]3C(=CCc4cc(O)ccc43)[C@@H]1CCC2=O [Equilin] | 47%
C[C@]12CC[C@@H]3c4ccc(OS(C)(=O)=O)cc4CC[C@H]3[C@@H]1CCC2=O [3-methanesulfonoyl estrone] | 0%
C[C@]12CC[C@@H]3c4ccc(OS(C)(=O)=O)cc4CC[C@H]3[C@@H]1CC[C@@H]2O [3-methanesulfonoyl-17-β-estradiol] | 17%
C[C@]12CC[C@@H]3c4ccc(O)cc4CC[C@H]3[C@@H]1CCC2=O [Estrone] | 35%
CCCCS(=O)(=O)Oc1ccc2c(c1)CC=C1[C@@H]2CC[C@]2(C)C(=O)CC[C@@H]12 [3-n-butylsulfonoyl equilin] | 119%
C[C@]12CC[C@@H]3c4ccc(OS(C)(=O)=O)cc4CC[C@H]3[C@@H]1CC[C@@H]2OS(C)(=O)=O [3,17-β-di-methanesulfonoyl estradiol] | 0%
CCCCS(=O)(=O)Oc1ccc2c(c1)CC[C@@H]1[C@@H]2CC[C@]2(C)[C@@H](OS(=O)(=O)CCCC)CC[C@@H]12 [3,17-β-di-n-butylsulfonoyl estradiol] | 112%
